Data from US20210121542A1, “COMPOSITION FOR […] OF PROTEIN TH[…] ORAL, SUBLINGUAL AND BUCCAL ROUTE” (Prime Bio, Inc., priority 2019, published 2021).

System: trypsin
Assay type: in vitro ADME

## bovine serum albumin [BSA]
  % Relative Protection (compared with BSA + Trypsin): 0%
